Measured values as given in paper PMC10520499, “Next step in the development of mesoprogestins: the preclinical profile of EC313” (Frontiers in Endocrinology, 2023).

Columns and labels:
[1] = system: human progesterone receptor (full length, PRA); experiment: Competitive binding, full length human progesterone receptor; settings: compared to progesterone
Protocol: The study aimed to characterize the competitive binding profile of EC313 to relevant human nuclear receptors. For the assays, commercially available ‘ligand binding domain’ proteins were purchased (Thermo Fisher Scientific). In addition, the full-length receptor proteins were expressed in transfected HI insect cells using the `Bac-to-bac Baculovirus expression system´ (Thermo Fisher Scientific). Cellular lysates served as receptor preparation. Receptor protein preparations were incubated with tritiated reference ligands and EC313 or reference steroids at concentrations between 0.1 and 1000 nM for 2h at 4°C to reach equilibrium. Subsequently, unbound steroids were adsorbed to dextran-coated charcoal (Sigma Aldrich), separated by filtration, and the remaining radioactivity was quantified in a ß-counter (Perkin Elmer). Displacement curves were fitted using the GraphPad Prism 7 free version to obtain EC50 values. Relative binding affinity (RBA [%], (C50ref/C50test)*100) and the competition coefficient (C50test/C50ref) were used to describe the relative binding potency of EC313 compared to the reference ligands.

[2] = system: cycling guinea pigs; experiment: Ovulation inhibition in cycling guinea pigs; type: in vivo, guinea pig; settings: for Number of ovulations vs. number of inseminated females: cycle days 10-17
Protocol: Test compounds were administered once daily from cycle days 10-17 by s. c. injection using 0.2 mL vehicle (benzyl-benzoate/castor oil, ratio 1 + 4 v/v). The time of autopsy (day 18) was 24-48h after the expected ovulation at the end of the treatment cycle. This design permits the study of the effects of the tested compounds on the expected ovulation. Fresh CL were evidence of a recent ovulation.

[3] = system: pregnant guinea pigs; experiment: Abortive activity in pregnant guinea pigs; type: in vivo, guinea pig; settings: 30 mg/animal/day s.c., pregnancy days 43 and 44
Protocol: In female animals, the second day of vaginal opening in the mating cycle was defined as day 1 of pregnancy (pregnancy length approx. 62 days). They were treated on days 43 and 44 by subcutaneous (s.c.) injection of the proprietary compounds EC312, EC313, EC323, and EC328 as well as UPA. All tested compounds were synthesized in Evestra Inc. The dose levels administered were 3, 10, and 30 mg/animal/day. The external genital organs were inspected for the presence of vaginal bleeding and fetal membranes (twice daily). The presence of expelled fetuses and placentae in the cages was also recorded at each inspection.
The animals were sacrificed on day 50 using CO2. Both uterine horns were dissected and their contents were inspected. Fresh corpora lutea (CL) were evidence of a recent ovulation.

[4] = target: T1, human PR-B receptor (Homo sapiens, UniProt P06401); experiment: PR-B transactivation (CHO, MMTV-LUC); type: cell-based
T1 sequence (P06401 1-933): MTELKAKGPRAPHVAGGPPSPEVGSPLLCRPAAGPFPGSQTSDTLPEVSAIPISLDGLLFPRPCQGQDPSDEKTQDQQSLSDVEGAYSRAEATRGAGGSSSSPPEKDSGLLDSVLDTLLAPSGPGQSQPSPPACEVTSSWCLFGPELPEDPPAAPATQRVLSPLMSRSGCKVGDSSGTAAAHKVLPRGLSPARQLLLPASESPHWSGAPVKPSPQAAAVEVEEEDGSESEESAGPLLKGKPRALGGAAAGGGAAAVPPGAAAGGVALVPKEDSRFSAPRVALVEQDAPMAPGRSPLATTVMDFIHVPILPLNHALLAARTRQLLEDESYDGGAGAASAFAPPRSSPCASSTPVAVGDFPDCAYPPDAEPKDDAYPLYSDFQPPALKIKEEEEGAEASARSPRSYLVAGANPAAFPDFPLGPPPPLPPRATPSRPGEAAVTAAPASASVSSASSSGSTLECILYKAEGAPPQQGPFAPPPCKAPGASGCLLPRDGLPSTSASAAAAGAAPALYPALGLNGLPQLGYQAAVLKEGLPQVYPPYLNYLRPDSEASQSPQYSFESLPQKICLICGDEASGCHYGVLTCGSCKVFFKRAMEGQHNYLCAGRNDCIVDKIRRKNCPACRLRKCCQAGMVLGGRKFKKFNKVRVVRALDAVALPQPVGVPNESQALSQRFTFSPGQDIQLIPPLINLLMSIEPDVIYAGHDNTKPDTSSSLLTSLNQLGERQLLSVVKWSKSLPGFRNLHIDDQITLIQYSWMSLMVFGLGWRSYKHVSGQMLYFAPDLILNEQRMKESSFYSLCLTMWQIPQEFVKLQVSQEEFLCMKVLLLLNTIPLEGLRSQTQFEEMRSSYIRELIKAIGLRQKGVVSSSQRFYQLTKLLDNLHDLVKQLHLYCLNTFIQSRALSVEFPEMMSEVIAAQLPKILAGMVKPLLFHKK
Description: The vector pcDNA3.1 coding sequence for the full length of human PRA and PRB (cDNA ORF clone in pcDNA3.1+/C-(K)-DYK) was used as an expression vector for PR isoform A and B, respectively. Vector pGL4.36 coding for the progesterone responsive element MMTV and firefly luciferase reporter vector [luc2P/Hygro] were used as reporter systems (pGL4.36-MMTV/LUC).
A sufficient transactivation signal was achieved using stable transfection for the human PRA and PRB receptors and transient transfection for the MMTV-luciferase reporter gene. Therefore, the first stable transfection with the receptor of interest was performed. Thus, 0.5x10^6 CHO cells per well were plated into 6-well plates in transfection medium w/o antibiotics (RPMI phenol-free, 10% FBS,2mM L-glutamine). When the cells reached 80% confluency, transfection with receptor using FuGENE 6 in Opti-MEM medium was accomplished according to the manufacturer’s instruction. After 48h of transfection, stably transfected cells were cultured in a growth medium containing an antibiotic (G418 500 µg/mL). Only cells with the resistance gene (resistance to G418), which had been transfected together with the DNA for PRA and PRB were able to grow in this medium. Consequently, growing cell clones were selected for further steps as stable transfectants. The CHO cells stably transfected with the expression of PRA or PRB were transiently transfected with promoter MMTV/LUC vectors. For this purpose, cells with a density of 12.5x10^3 per well in a 96-well plate were transfected using transfection reagent FuGENE and Opti-MEM medium, following the manufacturer’s instructions. The recovery of cells lasted 24h and they were then moved into the culture medium and treated for 24h with test compounds.
After 24h incubation of cells with tested compounds, luciferase activity was measured using a VICTOR™ X Multilabel Plate Reader -Perkin Elmer.

[5] = Aqueous solubility; type: physicochemical

C[C@]12C[C@H](c3ccc(-c4ccoc4)cc3)C3=C4CCC(=O)C=C4CC[C@H]3[C@@H]1CC[C@]21OCCC1=C(F)F [EC313]
competition coefficient [1]: 3.4 | Number of ovulations vs. number of inseminated females ([2]; 0.1 mg/animal/day s.c.): 1/5 | Number of ovulations vs. number of inseminated females ([2]; 1.0 mg/animal/day s.c.): 0/5 | Number of ovulations vs. number of inseminated females ([2]; 10.0 mg/animal/day s.c.): 0/8 | inhibition of ovulation ([2]; 1 and 10 mg/animal/day s.c.): Full inhibition of ovulation | effects in the vaginal epithelium ([2]; non-pregnant guinea pigs, all tested dose levels, 0.1 to 10.0 mg/animal/day s.c.): mucification | expulsion of uterine contents / fetal expulsions (animals) [3]: No fetal expulsions | potency relative to Mifepristone ([4]; PR-B antagonism): approximately 13% | agonistic activity ([4]; PR-B, high nM concentrations): Only marginal agonistic activity | IC50 ([4]; PR-B, set of 6 experiments, Promegestone 1.0 nM, read-out: average IC50, antagonism): 2.5 ± 0.7 nM | aqueous solubility [5]: very low aqueous solubility
